One may read the Kd as the equilibrium constant for the complex coming apart.

This assay concerns the target NACHT, LRR and PYD domains-containing protein 3 (Homo sapiens, UniProt Q96P20). The experiment in a line: Binding affinity to human recombinant NLRP3 inflammasome.

Sequence of NACHT, LRR and PYD domains-containing protein 3 (Q96P20 whole entry, the tested form may be a part): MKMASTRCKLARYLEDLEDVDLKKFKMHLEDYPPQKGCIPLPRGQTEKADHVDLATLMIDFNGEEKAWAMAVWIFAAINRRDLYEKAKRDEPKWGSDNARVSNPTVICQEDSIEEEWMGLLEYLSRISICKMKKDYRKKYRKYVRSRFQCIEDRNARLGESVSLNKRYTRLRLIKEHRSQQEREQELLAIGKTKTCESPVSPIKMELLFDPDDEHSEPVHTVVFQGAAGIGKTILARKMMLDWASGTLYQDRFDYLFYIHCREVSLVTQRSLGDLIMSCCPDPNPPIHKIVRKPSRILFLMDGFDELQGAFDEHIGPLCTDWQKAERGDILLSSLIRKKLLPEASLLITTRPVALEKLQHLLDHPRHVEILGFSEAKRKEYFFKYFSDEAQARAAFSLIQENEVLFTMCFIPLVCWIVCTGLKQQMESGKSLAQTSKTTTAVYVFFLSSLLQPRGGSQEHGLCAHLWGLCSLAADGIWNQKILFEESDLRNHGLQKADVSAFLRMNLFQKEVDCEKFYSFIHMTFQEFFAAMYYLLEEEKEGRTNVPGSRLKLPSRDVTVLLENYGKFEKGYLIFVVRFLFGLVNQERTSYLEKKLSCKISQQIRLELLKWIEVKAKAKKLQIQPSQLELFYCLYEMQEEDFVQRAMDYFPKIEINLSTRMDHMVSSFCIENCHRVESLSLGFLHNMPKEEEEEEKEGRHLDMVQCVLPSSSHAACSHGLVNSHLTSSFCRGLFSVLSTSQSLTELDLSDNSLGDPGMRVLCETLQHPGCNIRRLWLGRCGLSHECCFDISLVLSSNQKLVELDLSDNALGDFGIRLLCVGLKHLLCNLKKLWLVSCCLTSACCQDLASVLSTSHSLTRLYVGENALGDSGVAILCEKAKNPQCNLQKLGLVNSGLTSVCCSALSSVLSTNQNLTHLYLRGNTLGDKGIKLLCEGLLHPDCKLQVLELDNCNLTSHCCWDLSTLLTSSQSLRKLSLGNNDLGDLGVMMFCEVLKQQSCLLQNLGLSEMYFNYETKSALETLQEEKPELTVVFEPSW

For the compound `COc1ccc(Cl)cc1Cn1cc(C(=O)N2CC(F)(F)C2)nn1`, the Kd came to 980 nM.
With `COc1ccc(Cl)cc1Cn1cc(-c2ccc(C(=O)N3CCC3)cc2)nn1`, the Kd is 3000 nM.
With `COC(=O)c1ccc(-c2cn(Cc3cc(Cl)ccc3OC)nn2)nc1` the figure was 860 nM.

(Values after ChEMBL document CHEMBL5344460, “Advancements in Predictive Medicine: NLRP3 Inflammasome Inhibitors and AI-Driven Predictive Health Analytics” (ACS Med Chem Lett, 2024).)
